The test system of experiment [1] is NIC-evoked [3H]DA release from rat striatal slices. Description: Nicotine-evoked [3H]dopamine release assay, superfused rat striatal slices. It counts as cell-based. Particulars: 100 nM analog superfused 60 minutes prior to NIC (10 μM), percent of that in the absence of analog. The protocol: Rat striatal slices (500 μm thickness, 6-8 mg wet weight) were incubated for 30 minutes in Krebs buffer (118 mM NaCl, 4.7 mM KCl, 1.2 mM MgCl2, 1.0 mM NaH2PO4, 1.3 mM CaCl2, 11.1 mM glucose, 25 mM NaHCO3, 0.11 mM L-ascorbic acid and 0.004 mM disodium EDTA; pH 7.4, and saturated with 95% O2/5% CO2) in a metabolic shaker at 34° C. Slices were rinsed with 15 mL of fresh buffer and incubated for an additional 30 minutes in fresh buffer containing 0.1 μM [^3H]dopamine (DA; 6 slices/3 mL). Subsequently, slices were rinsed with 15 mL of fresh buffer and transferred to a glass superfusion chamber. Slices were superfused (1.0 mL/min) for 60 minutes with Krebs buffer containing nomifensine (10 μM) and pargyline (10 μM) and maintained at 34° C., pH 7.4 with continual aeration (95% O2/5% CO2). Two five minute samples (5 mL each) were collected to determine basal outflow of [^3H]DA. Analogs were added to the superfusion buffer after the collection of the second sample and remained in the buffer until 12 consecutive five minute samples were collected. Subsequently, S-(−)-nicotine (10 μM) was added to the buffer and an additional 12 consecutive five minute samples were collected. At the end of the experiment, each slice was solubilized and the [^3H] content of the tissue determined.
Radioactivity in the superfusate and tissue samples were determined by liquid scintillation spectroscopy. Fractional release for tritium collected in each sample was divided by the total tritium present at the time of sample collection and was expressed as a percentage of total tritium. Basal [^3H] outflow was calculated from the average of the tritium collected in the two five-minute samples just before addition of the analog. The sum of the increase in collected tritium resulting from either exposure to the test compound or exposure to S-(−)-nicotine in the absence cod presence of the test compound equaled total [^3H] overflow. [^3H] Overflow was calculated by subtracting the [^3H] outflow during an equivalent period of prestimulation from the values in samples collected during and after drug exposure. Inasmuch as the radiolabelled compounds were not separated and identified, the tritium in the superfusate is referred to as either [^3H] outflow or [^3H] overflow, rather than [^3H]DA. [^3H] Overflow primarily represents [^3H]DA in the presence of nomifesine and pargyline in the superfusion buffer. […]
Analogs were also evaluated for their ability to inhibit NIC evoked [^3H]DA release. In these experiments, the striatal slices were superfused for 60 minutes with 100 nM concentration of the analogs prior to NIC (10 μM) exposure. Antagonist activity was evaluated by comparing the NIC-evoked [^3H] overflow in the absence and presence of the analogs. The relative order of potency of the analogs for inhibition of NIC-evoked [^3H]DA release from rat striatal slices is illustrated in Table 1.
(§1) Data are % inhibition at 100 nM concentration of analog for at least 1-3 independent experiments. Specific binding in the [^3H]NIC binding assay is calculated at the difference between the total binding of [^3H]NIC and nonspecific binding in the presence of 10 μM cold nicotine. Specific binding for the [^3H]MLA binding assay is calculated as the difference between the total binding of 2.5 nM [^3H]MLA to the receptors alone and its nonspecific binding in the presence of 1 μM cold MLA. Analog-induced inhibition of nicotine-evoked [^3H]DA release is calculated as a percent of that in the absence of analog.

In experiment [2] the target is T1, Rat Striatal Nicotinic Receptors (Rattus norvegicus, UniProt P09483+P12390).
T1 construct: from tissue; host or cells: rat striatal membranes
T1 sequence (P09483 31-630): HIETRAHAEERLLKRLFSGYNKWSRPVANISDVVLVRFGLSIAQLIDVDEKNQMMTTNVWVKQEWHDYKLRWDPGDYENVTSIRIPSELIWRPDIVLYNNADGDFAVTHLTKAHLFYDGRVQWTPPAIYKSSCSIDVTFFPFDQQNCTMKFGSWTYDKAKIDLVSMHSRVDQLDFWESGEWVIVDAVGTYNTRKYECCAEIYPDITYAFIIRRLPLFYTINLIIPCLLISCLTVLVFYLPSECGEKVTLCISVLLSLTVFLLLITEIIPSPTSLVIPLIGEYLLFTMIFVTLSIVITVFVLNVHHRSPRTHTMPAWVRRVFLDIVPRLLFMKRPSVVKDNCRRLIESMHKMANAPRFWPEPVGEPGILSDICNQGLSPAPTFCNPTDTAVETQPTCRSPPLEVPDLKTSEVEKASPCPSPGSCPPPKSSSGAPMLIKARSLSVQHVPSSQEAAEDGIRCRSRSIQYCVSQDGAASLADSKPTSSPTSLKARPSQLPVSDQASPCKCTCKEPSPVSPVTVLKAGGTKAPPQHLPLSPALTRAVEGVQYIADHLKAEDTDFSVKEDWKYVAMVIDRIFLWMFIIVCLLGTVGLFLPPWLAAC
T1 sequence (P12390 25-500): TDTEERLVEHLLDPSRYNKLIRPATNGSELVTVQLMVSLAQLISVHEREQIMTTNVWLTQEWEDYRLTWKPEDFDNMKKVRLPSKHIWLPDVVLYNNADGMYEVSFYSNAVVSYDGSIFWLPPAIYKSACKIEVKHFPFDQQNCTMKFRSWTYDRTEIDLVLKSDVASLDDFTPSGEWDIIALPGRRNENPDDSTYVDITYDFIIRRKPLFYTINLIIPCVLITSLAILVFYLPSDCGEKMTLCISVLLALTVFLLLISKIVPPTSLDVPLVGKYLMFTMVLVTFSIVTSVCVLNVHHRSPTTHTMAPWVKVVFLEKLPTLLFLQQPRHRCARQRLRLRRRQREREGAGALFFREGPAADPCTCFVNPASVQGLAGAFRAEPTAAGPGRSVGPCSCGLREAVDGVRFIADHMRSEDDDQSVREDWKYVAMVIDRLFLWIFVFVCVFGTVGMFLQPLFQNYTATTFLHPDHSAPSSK
Briefly: Inhibition of [3H]Nicotine (NIC) binding assay, rat striatal membranes. The settings on record: % inhibition at 100 nM concentration of analog, 3 nM [3H]NIC. The protocol: Striata from two rats were dissected, pooled, and homogenized with a Tekmar polytron in 10 vol of ice-cold modified Krebs-HEPES buffer (20 mM HEPES, 118 mM NaCl, 4.8 mM, KCl, 2.5 mM CaCl2, 1.2 mM MgSO4, adjusted to pH 7.5). The homogenates were incubated at 37° C. for 5 minutes and centrifuged at 15,000 g for 20 minutes. The pellet was resuspended in 10 volumes of ice-cold MilliQ water, incubated for 5 minutes at 37° C., and centrifuged at 15,000 g for 20 minutes. The second pellet was then resuspended in 10 volumes of fresh ice-cold 10% Krebs-HEPES buffer, incubated at 37° C., and centrifuged at 15,000 g for 20 minutes. The latter sequence of resuspension, incubation and centrifugation was repeated. The pellet was frozen under fresh 10% Krebs-HEPES buffer and stored at −40° C. until assay. Upon assay, the pellet was resuspended in Krebs-HEPES buffer, incubated at 37° C. for 5 minutes, and centrifuged at 15,000 g for 20 minutes. The final pellet was resuspended in 3.6 mL ice-cold MilliQ water which provided for approximately 200 μg protein per 100 μL aliquot. Competition assays were performed in duplicate in a final volume of 200 μL Krebs-HEPES buffer containing […] Tris buffer (pH 7.5 at 4° C.). Reactions were initiated by addition of 100 μL of membrane suspension to 3 nM [^3H]NIC (50 μL) and one of at least nine concentrations of analog (50 μL). After a 90 minute incubation at 4° C., reactions were terminated by dilution of the samples with 3 mL of ice-cold Krebs-HEPES buffer followed immediately by filtration through Whatman GF/B glass fiber filters (presoaked in 0.5% polyethyleneimine) using a Brandel Cell Harvester. Filters were rinsed three times with 3 mL of ice-cold Krebs-HEPES buffer, transferred to scintillation vials, and 5 mL scintillation cocktail (Research Products international Corp., Mt. Prospect, Ill.) added. Nonspecific binding determined in triplicate was defined as binding in the presence of 10 μM NIC. Binding parameters were determined using the weighted, least squares non-linear regression. The tris-quaternary ammonium salts were evaluated for their ability to displace [^3H]NIC binding from rat striatal membranes.
as §1

Experiment [3] addresses T2, α7-type neuronal nicotinic acetylcholine receptors (Rattus norvegicus, UniProt Q05941).
T2 construct: from tissue; host or cells: rat brain membranes (whole brain without cortex, striatum and cerebellum)
Briefly: Inhibition of [3H]Methyllycaconitine (MLA) binding assay, rat brain membranes. Particulars: % inhibition at 100 nM concentration of analog; rat brain membranes; 2.5 nM [3H]MLA; read-out: Inhibition of [3H]MLA binding. As to the method: Rat brain was dissected into the whole brain tissue without cortex, striatum and cerebellum and was frozen in liquid nitrogen and stored at −70° C. until use. The brain tissue was homogenized with a Tekmar Polytron (setting 40) in 20 volumes of ice-cold hypotonic buffer (2 mM HEPES, 14.4 mM NaCl, 0.15 mM KCl, 0.2 mM CaCl2 and 0.1 mM MgSO4, pH=7.5). The homogenate was incubated at 37° C. for 10 minutes and centrifuged at 25,000 g for 15 minutes at […] The pellet was washed 3 times more by resuspension in 20 volumes of the same buffer and centrifugation at the above parameters. The final pellet was stored at −20° C. under 4.6 mL of the incubation buffer and was suspended just before the incubation with radioligand.
The binding of [^3H]MLA to probe α7-type neuronal nicotinic acetylcholine receptors was measured using a modification of the method of Davies at al., “Characterisation of the binding of [^3H]methyllycaconitine (MLA): a radioligand for labelling α7-type neuronal nicotinic acetylcholine receptors,” Neuropharmacology, 38, 679-690 (1999). [^3H]MLA (25.4 Ci/mmol) was purchased from Tocris Cookson Ltd., Bristol, U.K. Binding was performed in duplicate, in a final volume of 250 μL of the incubation medium, containing 20 mM HEPES, 144 mM NaCl, 1.5 mM KCl, 2 mM CaCl2, 1 mM MgSO4 and 0.05% BSA, pH=7.5. Reaction was initiated by the addition of 100 μL of membrane suspension to the samples containing a desired concentration of test compounds and […] [^3H]MLA (final concentration) and incubated for 2 hours it room temperature. Total binding was measured in the absence of unlabelled ligand, and nonspecific binding was determined by the presence of 1 μM unlabelled MLA. The binding reaction was terminated by dilution of samples with 3 mL of ice-cold incubation buffer followed by immediate filtration through glass fiber filters (S&S, grade #32, presoaked in 0.5% polyethylenimine) using a Brandel harvester system. Filters were rinsed three times with 3 mL of ice-cold buffer, transferred to scintillation vials and 4 mL of scintillation cocktail was added. Protein was measured using the Bradford dye-binding procedure with bovine serum albumin as the standard.
The tris-quaternary ammonium salts were evaluated for their ability to displace [^3H]MLA binding from rat brain membranes.
as §1

The structures appear in SMILES notation.

T2 sequence (Q05941 23-502): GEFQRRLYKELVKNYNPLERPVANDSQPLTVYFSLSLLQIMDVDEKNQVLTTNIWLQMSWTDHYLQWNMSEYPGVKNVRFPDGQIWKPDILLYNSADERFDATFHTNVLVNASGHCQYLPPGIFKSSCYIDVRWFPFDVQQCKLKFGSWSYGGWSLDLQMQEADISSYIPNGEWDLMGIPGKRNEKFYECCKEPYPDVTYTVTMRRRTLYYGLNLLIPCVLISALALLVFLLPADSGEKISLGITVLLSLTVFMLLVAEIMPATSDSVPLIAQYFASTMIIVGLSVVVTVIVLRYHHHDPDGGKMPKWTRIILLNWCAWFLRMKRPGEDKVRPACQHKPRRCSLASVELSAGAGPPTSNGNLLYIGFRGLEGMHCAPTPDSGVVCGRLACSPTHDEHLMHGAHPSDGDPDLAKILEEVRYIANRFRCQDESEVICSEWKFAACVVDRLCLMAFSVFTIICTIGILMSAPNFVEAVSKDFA

In the case of `c1ccc2c[n+](CCCCCc3cc(CCCCC[n+]4ccc5ccccc5c4)cc(CCCCC[n+]4ccc5ccccc5c4)c3)ccc2c1` [GZ556B, 1,3,5-tris-[5-(2-isoquinolinium)-pentyl]-benzene tribromide], the inhibition (as a rule, the share of the control response that was lost under treatment) at 0.1 µM in experiment [1] was determined as 28 ± 11%; in experiment [2], 8.4 ± 7.6%; in experiment [3] it was 2.5 ± 1.5%.

In the case of `Cc1cc(C)c[n+](CCCCCc2cc(CCCCC[n+]3cc(C)cc(C)c3)cc(CCCCC[n+]3cc(C)cc(C)c3)c2)c1` [GZ557A, 1,3,5-tris-[5-(3,5-lutidinium)-pentyl]-benzene tribromide], the inhibition at 0.1 µM is 39 ± 18% in experiment [1], 11 ± 2.9% in experiment [2] and 6.5 ± 3.6% in experiment [3].

With `Cc1cc[n+](CCCCCc2cc(CCCCC[n+]3ccc(C)c(C)c3)cc(CCCCC[n+]3ccc(C)c(C)c3)c2)cc1C` [GZ557B, 1,3,5-tris-[5-(3,4-lutidinium)-pentyl]-benzene tribromide], the inhibition at 0.1 µM in experiment [1] was 50 ± 21%; in experiment [2], 9.3 ± 4.1%; in experiment [3] it was 0.2 ± 0.2%.

In the case of `c1ccc(-c2ccc[n+](CCCCCc3cc(CCCCC[n+]4cccc(-c5ccccc5)c4)cc(CCCCC[n+]4cccc(-c5ccccc5)c4)c3)c2)cc1` [GZ558A, 1,3,5-tris-[5-(3-phenyl-pyridinium)-pentyl]-benzene tribromide], the inhibition at 0.1 µM in experiment [1] is 6 ± 5%; in experiment [2], 14 ± 5.8%; in experiment [3], 19 ± 1.7%.

Consider `CCCCc1ccc[n+](CCCCCc2cc(CCCCC[n+]3cccc(CCCC)c3)cc(CCCCC[n+]3cccc(CCCC)c3)c2)c1` [GZ558B, 1,3,5-tris-[5-(3-butyl-pyridinium)-pentyl]-benzene tribromide], for which the figures for the inhibition at 0.1 µM in experiment [1], in experiment [2] and in experiment [3] were 68 ± 14%, 6.2 ± 4% and 4.4 ± 3.3%, respectively.

The values above are taken from US8940774B2, “Tris-Quaternary Ammonium Salts and Methods for Modulating Neuronal Nicotinic Acetylcholine Receptors” (University of Kentucky Research Foundation, priority 2005, dated 2015).
